Laboratory results published in ChEMBL document CHEMBL4052645, “Discovery of potent and efficacious pyrrolopyridazines as dual JAK1/3 inhibitors” (Bioorg Med Chem Lett, 2017).

Assays:
[1] = target: Non-receptor tyrosine-protein kinase TYK2 (Homo sapiens, UniProt P29597); experiment: Inhibition of His-tagged TYK2 (unknown origin) after 3 hrs by Caliper assay
[2] = target: NUAK family SNF1-like kinase 1 (Homo sapiens) (UniProt O60285); experiment: Inhibition of human NUAK1 (25 to I332 residues) expressed in bacterial expression system assessed as residual activity at 50 nM by KINOMEscan assay relative to control
[3] = target: Protein kinase C theta type (Homo sapiens) (UniProt Q04759); experiment: Inhibition of wild-type human partial length PKCT (L350 to S706 residues) expressed in bacterial expression system assessed as residual activity at 50 nM by Kinomescan method relative to control
[4] = target: Aurora kinase C (Homo sapiens) (UniProt Q9UQB9); experiment: Inhibition of wild-type human full length AURC (M1 to S275 residues) expressed in bacterial expression system assessed as residual activity at 50 nM by Kinomescan method relative to control
Chain of Aurora kinase C (Homo sapiens) (Q9UQB9 whole entry, the tested form may be a part): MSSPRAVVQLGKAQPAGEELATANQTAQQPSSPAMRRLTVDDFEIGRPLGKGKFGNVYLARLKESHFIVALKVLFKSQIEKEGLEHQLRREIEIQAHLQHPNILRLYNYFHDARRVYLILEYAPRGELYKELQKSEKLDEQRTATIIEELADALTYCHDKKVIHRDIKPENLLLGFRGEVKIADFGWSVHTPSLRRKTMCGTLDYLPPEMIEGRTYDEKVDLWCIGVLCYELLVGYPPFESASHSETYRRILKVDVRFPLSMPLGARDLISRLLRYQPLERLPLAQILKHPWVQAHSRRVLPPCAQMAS

[5] = target: Serine/threonine-protein kinase 10 (Homo sapiens) (UniProt O94804); experiment: Inhibition of wild-type human partial length LOK (E16 to V314 residues) expressed in bacterial expression system assessed as residual activity at 50 nM by Kinomescan method relative to control
[6] = target: Mitogen-activated protein kinase kinase kinase 6 (Homo sapiens) (UniProt O95382); experiment: Inhibition of wild-type human partial length MAP3K6 (M278 to R972 residues) expressed in mammalian expression system assessed as residual activity at 50 nM by Kinomescan method relative to control
[7] = target: SRSF protein kinase 3 (Homo sapiens) (UniProt Q9UPE1); experiment: Inhibition of wild-type human partial length MSSK1 (P41 to P567 residues) expressed in bacterial expression system assessed as residual activity at 50 nM by Kinomescan method relative to control
[8] = target: Interleukin-1 receptor-associated kinase 3 (Homo sapiens) (UniProt Q9Y616); experiment: Inhibition of wild-type human partial length IRAK3 (V147 to E596 residues) expressed in bacterial expression system assessed as residual activity at 50 nM by Kinomescan method relative to control
Chain of Interleukin-1 receptor-associated kinase 3 (Homo sapiens) (Q9Y616 whole entry, the tested form may be a part, canonical isoform): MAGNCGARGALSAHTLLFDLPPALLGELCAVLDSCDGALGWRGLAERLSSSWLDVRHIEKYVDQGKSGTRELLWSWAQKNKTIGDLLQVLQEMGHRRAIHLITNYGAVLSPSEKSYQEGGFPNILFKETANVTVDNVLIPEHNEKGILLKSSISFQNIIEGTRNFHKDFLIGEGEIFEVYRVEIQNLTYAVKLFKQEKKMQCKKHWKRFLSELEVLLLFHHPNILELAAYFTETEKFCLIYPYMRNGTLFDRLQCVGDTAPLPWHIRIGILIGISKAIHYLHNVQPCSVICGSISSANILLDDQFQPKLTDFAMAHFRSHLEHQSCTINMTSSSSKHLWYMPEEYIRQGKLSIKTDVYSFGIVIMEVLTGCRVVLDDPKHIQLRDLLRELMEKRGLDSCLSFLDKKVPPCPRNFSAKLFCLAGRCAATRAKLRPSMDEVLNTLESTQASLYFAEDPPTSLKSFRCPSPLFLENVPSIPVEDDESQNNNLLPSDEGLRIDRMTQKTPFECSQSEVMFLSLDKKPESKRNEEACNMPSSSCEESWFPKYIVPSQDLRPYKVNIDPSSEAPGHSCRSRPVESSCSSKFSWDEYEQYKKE

[9] = tested on: Phosphatidylinositol 4,5-bisphosphate 3-kinase catalytic subunit alpha isoform (Homo sapiens), P42336 [H1047Y]; experiment: Inhibition of human partial length PIK3CA H1047Y mutant (R108 to N1068 residues) expressed in mammalian expression system assessed as residual activity at 50 nM by Kinomescan method relative to control
[10] = target: Mitogen-activated protein kinase 8 (Homo sapiens) (UniProt P45983); experiment: Inhibition of wild-type human full length JNK1 (M1 to Q384 residues) expressed in mammalian expression system assessed as residual activity at 50 nM by Kinomescan method relative to control
[11] = target: Serine/threonine-protein kinase TAO3 (Homo sapiens) (UniProt Q9H2K8); experiment: Inhibition of wild-type human partial length TAO3 (M1 to T316 residues) expressed in mammalian expression system assessed as residual activity at 50 nM by Kinomescan method relative to control
[12] = target: Tyrosine-protein kinase receptor UFO (Homo sapiens) (UniProt P30530); experiment: Inhibition of wild-type human partial length AXL (R497 to Y821 residues) expressed in bacterial expression system assessed as residual activity at 50 nM by Kinomescan method relative to control
Chain of Tyrosine-protein kinase receptor UFO (Homo sapiens) (P30530 whole entry, the tested form may be a part): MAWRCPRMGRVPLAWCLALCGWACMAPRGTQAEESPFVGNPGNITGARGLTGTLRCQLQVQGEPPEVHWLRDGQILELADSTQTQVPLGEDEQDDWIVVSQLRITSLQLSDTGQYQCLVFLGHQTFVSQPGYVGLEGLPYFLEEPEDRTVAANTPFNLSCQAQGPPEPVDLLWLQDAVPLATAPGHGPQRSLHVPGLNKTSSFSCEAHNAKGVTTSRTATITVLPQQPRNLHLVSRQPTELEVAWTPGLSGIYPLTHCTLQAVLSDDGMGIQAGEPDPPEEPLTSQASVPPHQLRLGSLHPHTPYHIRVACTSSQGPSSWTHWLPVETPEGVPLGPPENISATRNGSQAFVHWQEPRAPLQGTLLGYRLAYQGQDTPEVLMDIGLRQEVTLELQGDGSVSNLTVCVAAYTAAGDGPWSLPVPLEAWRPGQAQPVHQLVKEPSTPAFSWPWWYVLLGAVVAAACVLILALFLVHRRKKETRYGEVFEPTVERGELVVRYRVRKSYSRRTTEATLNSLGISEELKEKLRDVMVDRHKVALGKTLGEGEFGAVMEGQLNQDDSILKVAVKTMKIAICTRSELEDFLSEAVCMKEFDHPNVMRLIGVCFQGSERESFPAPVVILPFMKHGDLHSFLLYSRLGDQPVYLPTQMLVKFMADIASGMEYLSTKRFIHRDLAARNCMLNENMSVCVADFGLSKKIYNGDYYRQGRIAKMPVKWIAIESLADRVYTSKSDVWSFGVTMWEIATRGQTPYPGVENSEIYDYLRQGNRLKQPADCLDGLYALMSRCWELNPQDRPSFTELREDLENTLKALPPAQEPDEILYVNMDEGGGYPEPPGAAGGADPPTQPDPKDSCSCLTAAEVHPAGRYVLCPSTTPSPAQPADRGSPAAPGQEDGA

[13] = target: Serine/threonine-protein kinase/endoribonuclease IRE1 (Homo sapiens) (UniProt O75460); experiment: Inhibition of wild-type human partial length IRE1 (S551 to E852 residues) expressed in mammalian expression system assessed as residual activity at 50 nM by Kinomescan method relative to control
[14] = target: Mitogen-activated protein kinase kinase kinase kinase 4 (Homo sapiens) (UniProt O95819); experiment: Inhibition of wild-type human partial length HGK (M1 to R310 residues) expressed in bacterial expression system assessed as residual activity at 50 nM by Kinomescan method relative to control
[15] = target: Tyrosine-protein kinase receptor Tie-1 (Homo sapiens) (UniProt P35590); experiment: Inhibition of wild-type human partial length TIE1 (T819 to A1138 residues) expressed in bacterial expression system assessed as residual activity at 50 nM by Kinomescan method relative to control
[16] = target: Bone morphogenetic protein receptor type-2 (Homo sapiens) (UniProt Q13873); experiment: Inhibition of wild-type human partial length BMPR2 (R179 to Q526 residues) expressed in mammalian expression system assessed as residual activity at 50 nM by Kinomescan method relative to control
Chain of Bone morphogenetic protein receptor type-2 (Homo sapiens) (Q13873 whole entry, the tested form may be a part): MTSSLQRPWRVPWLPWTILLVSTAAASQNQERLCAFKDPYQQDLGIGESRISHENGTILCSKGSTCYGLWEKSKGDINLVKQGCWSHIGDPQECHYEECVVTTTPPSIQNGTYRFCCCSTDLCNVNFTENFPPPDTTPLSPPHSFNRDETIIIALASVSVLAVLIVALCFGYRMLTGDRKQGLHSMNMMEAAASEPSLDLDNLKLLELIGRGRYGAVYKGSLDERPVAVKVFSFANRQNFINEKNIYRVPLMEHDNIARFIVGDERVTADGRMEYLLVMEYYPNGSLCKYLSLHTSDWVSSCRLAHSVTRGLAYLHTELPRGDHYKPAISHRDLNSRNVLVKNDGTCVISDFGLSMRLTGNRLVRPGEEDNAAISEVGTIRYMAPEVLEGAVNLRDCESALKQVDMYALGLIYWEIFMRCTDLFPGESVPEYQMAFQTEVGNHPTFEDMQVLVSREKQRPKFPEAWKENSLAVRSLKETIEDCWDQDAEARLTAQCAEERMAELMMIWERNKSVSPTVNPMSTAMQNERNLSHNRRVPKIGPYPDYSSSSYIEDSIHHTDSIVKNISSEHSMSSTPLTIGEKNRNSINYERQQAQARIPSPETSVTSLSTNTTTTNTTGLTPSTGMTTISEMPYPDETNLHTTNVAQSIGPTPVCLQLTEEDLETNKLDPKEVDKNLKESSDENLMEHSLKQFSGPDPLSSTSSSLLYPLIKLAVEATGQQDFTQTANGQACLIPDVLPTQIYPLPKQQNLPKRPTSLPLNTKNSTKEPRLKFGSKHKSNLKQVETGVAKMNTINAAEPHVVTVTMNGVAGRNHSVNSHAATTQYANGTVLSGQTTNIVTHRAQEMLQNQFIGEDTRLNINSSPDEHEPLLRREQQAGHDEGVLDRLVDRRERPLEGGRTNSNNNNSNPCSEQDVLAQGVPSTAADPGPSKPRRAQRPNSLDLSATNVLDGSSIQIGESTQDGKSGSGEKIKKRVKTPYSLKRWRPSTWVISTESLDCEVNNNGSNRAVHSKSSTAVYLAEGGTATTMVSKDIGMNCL

[17] = target: Atypical kinase COQ8A, mitochondrial (Homo sapiens) (UniProt Q8NI60); experiment: Inhibition of wild-type human […] ADCK3 (M280 to Q647 residues) expressed in bacterial expression system assessed as residual activity at 50 nM by Kinomescan method relative to control
Chain of Atypical kinase COQ8A, mitochondrial (Homo sapiens) (Q8NI60 163-647 limits assumed): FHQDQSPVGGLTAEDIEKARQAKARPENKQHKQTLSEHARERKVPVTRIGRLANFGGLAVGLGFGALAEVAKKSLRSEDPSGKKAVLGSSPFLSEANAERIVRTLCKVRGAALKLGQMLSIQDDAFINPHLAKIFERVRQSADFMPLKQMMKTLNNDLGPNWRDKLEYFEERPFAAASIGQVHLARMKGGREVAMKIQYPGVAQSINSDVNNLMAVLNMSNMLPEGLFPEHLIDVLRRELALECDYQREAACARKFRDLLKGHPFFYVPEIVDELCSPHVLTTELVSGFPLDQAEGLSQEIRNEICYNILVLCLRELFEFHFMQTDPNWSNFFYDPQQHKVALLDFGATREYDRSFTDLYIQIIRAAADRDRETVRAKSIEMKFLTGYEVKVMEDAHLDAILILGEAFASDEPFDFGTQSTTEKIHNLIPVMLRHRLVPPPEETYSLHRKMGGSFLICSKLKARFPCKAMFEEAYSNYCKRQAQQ

[18] = target: RAC-beta serine/threonine-protein kinase (Homo sapiens) (UniProt P31751); experiment: Inhibition of wild-type human partial length AKT2 expressed in bacterial expression system assessed as residual activity at 50 nM by Kinomescan method relative to control
Chain of RAC-beta serine/threonine-protein kinase (Homo sapiens) (P31751 whole entry, the tested form may be a part): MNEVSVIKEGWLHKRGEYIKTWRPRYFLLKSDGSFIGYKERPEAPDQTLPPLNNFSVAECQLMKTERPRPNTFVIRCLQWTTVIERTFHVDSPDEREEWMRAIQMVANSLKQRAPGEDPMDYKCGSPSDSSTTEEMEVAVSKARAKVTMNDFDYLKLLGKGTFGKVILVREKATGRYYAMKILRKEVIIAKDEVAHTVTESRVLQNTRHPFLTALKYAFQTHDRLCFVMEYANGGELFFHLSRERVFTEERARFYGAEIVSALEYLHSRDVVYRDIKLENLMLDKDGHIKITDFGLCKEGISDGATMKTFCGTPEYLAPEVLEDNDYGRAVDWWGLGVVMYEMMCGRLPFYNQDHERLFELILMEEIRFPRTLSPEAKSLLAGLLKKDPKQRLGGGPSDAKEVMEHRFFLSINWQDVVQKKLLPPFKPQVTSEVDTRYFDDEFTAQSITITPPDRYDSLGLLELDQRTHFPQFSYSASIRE

[19] = target: Activin receptor type-1-like (Homo sapiens) (UniProt P37023); experiment: Inhibition of wild-type human ALK1 (L164 to Q503 residues) expressed in bacterial expression system assessed as residual activity at 50 nM by Kinomescan method relative to control
[20] = target: Homeodomain-interacting protein kinase 4 (Homo sapiens) (UniProt Q8NE63); experiment: Inhibition of wild-type human partial length HIPK4 (M1 to V384 residues) expressed in bacterial expression system assessed as residual activity at 50 nM by Kinomescan method relative to control
Chain of Homeodomain-interacting protein kinase 4 (Homo sapiens) (Q8NE63 whole entry, the tested form may be a part): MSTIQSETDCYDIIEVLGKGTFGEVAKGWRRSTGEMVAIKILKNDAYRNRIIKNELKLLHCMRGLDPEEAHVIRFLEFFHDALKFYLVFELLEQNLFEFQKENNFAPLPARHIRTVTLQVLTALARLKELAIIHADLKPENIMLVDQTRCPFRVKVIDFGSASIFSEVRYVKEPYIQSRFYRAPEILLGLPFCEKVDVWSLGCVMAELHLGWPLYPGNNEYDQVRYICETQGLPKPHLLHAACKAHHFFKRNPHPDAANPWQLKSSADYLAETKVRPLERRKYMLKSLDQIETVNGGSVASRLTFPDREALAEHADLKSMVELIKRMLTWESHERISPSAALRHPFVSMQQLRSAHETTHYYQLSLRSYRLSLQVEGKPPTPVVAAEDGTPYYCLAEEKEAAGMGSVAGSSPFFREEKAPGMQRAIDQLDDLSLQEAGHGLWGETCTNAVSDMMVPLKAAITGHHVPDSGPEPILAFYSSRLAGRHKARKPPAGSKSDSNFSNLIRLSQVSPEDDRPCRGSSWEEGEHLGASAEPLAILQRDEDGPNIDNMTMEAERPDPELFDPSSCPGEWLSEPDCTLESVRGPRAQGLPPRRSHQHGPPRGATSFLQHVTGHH

[21] = target: Serine/threonine-protein kinase MAK (Homo sapiens) (UniProt P20794); experiment: Inhibition of wild-type human partial length MAK (M1 to P314 residues) expressed in bacterial expression system assessed as residual activity at 50 nM by Kinomescan method relative to control
Chain of Serine/threonine-protein kinase MAK (Homo sapiens) (P20794 whole entry, the tested form may be a part): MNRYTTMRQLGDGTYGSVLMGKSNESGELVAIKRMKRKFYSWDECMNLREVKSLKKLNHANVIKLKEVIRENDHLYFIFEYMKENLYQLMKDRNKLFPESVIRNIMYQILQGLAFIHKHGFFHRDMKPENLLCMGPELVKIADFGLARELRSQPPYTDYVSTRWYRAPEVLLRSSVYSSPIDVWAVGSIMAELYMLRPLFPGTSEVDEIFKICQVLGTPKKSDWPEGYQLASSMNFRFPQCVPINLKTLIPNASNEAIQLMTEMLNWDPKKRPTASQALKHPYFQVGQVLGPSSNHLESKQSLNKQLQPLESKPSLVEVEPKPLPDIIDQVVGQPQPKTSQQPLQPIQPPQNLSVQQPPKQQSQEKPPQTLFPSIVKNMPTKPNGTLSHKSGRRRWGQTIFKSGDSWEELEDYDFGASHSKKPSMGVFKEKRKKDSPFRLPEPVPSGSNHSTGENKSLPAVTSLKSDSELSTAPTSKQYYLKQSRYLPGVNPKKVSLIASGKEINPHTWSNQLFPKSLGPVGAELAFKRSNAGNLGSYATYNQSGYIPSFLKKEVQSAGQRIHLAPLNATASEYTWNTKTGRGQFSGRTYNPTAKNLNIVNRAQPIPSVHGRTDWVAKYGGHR

[22] = target: Serine/threonine-protein kinase Nek1 (Homo sapiens) (UniProt Q96PY6); experiment: Inhibition of wild-type human partial length NEK1 (M1 to K278 residues) expressed in bacterial expression system assessed as residual activity at 50 nM by Kinomescan method relative to control
[23] = target: Phosphatidylinositol 4,5-bisphosphate 3-kinase catalytic subunit alpha isoform (Homo sapiens) (UniProt P42336); experiment: Inhibition of wild-type human partial length PI3KCA (R108 to N1068 residues) expressed in mammalian expression system assessed as residual activity at 50 nM by Kinomescan method relative to control
[24] = target: Serine/threonine-protein kinase PLK2 (Homo sapiens) (UniProt Q9NYY3); experiment: Inhibition of wild-type human partial length PLK2 (H58 to F354 residues) expressed in mammalian expression system assessed as residual activity at 50 nM by Kinomescan method relative to control
[25] = target: Serine/threonine-protein kinase TNNI3K (Homo sapiens) (UniProt Q59H18); experiment: Inhibition of wild-type human HH498 (M1 to S835 residues) expressed in bacterial expression system assessed as residual activity at 50 nM by Kinomescan method relative to control

| SMILES | IC50 [1] [nM] | Activity [2] [%] | Activity [3] [%] | Activity [4] [%] | Activity [5] [%] | Activity [6] [%] | Activity [7] [%] | Activity [8] [%] | Activity [9] [%] | Activity [10] [%] | Activity [11] [%] | Activity [12] [%] | Activity [13] [%] | Activity [14] [%] | Activity [15] [%] | Activity [16] [%] | Activity [17] [%] | Activity [18] [%] | Activity [19] [%] | Activity [20] [%] | also measured |
| --- | --- | --- | --- | --- | --- | --- | --- | --- | --- | --- | --- | --- | --- | --- | --- | --- | --- | --- | --- | --- | --- |
| COc1ccc(-c2cc3c(N[C@@H]4CC[C@](C)(N)C4(C)C)c(C(N)=O)cnn3c2)cn1 | 25 | 6 | 74 | 82 | 75 | 93 | 100 | 100 | 100 | 88 | 78 | 96 | 90 | 100 | 97 | 100 | 76 | 88 | 100 | 80 | Activity [21]: 100%; Activity [22]: 92%; Activity [23]: 100%; Activity [24]: 100%; Activity [25]: 97% |
| CC1(C)[C@H](Nc2c(C(N)=O)cnn3cc(-c4ccccc4)cc23)CC[C@]1(C)N | 7.5 | 2 | 38 | 42 | 48 | 56 | 56 | 66 | 66 | 81 | 82 | 90 | 90 | 90 | 91 | 93 | 100 | 100 | 100 | 100 | Activity [21]: 100%; Activity [22]: 100%; Activity [23]: 100%; Activity [24]: 100%; Activity [25]: 83% |
